Experimental data as given in the supplement of paper PMC10307832.

Key:
Assay in all cases: relative viability (nuclei count vs DMSO), 5 days (fraction); higher = more cells survive
[1] = compound: C1CNCCC1C2=CC(=NN2)C3=CC=NC=C3
Outline: (§1)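 Following overnight incubation at 37 °C, lung cancer cell lines in 1536-well plates were pinned with five library-drug doses (not always all listed) in √10 steps on vehicle-anchored plates. The cells then spent 5 days without medium change before a combined fix, permeabilisation and Hoechst stain, 4× imaging and MetaXpress nuclear counts. Viability is the treated-to-vehicle ratio of nuclei, taken as the median across plates. Only plates with control CV below 25% and at least one doubling passed.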

[2] = compound: O[C@H]1CC[C@H](Nc2ncc3nc(Nc4c(F)cc(F)cc4F)n([C@H]4CCOC4)c3n2)CC1 [Tanzisertib]
Outline: as §1

[3] = compound: C[C@@H](N)c1ccc(C(=O)Nc2ccnc3[nH]ccc23)cc1
Outline: as §1

[4] = compound: C[C@@H](N)c1ccc(C(=O)Nc2ccnc3[nH]ccc23)cc1 + CS(=O)(=O)CCNCc1ccc(-c2ccc3ncnc(Nc4ccc(OCc5cccc(F)c5)c(Cl)c4)c3c2)o1 [Lapatinib] (partner 2 µM)
Outline: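 One day after seeding in 1536-well plates, lung cancer cell lines were dosed by pin tool. Dosing was either single-drug or a fixed anchor-drug dose plus five library-drug doses (not always all listed) in √10 steps. After 5 days, nuclei were stained in one fix-and-stain step and counted on 4× images, and relative viability is the nuclei count of treated wells over that of vehicle wells, given as the median of duplicate plates.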

UMC-11
relative viability ([1]; 0.08 µM): 0.862 | relative viability ([1]; 0.8 µM): 1.16 | relative viability ([1]; 2.53 µM): 1.01 | relative viability ([1]; 8 µM): 0.992 | relative viability ([2]; 0.08 µM): 1.09 | relative viability ([2]; 0.253 µM): 0.973 | relative viability ([2]; 0.8 µM): 1.01 | relative viability ([2]; 2.53 µM): 0.987 | relative viability ([2]; 8 µM): 1.01 | relative viability ([3]; 0.04 µM): 0.954 | relative viability ([3]; 0.1265 µM): 1.07 | relative viability ([3]; 0.4 µM): 1.16 | relative viability ([3]; 1.265 µM): 0.712 | relative viability ([3]; 4 µM): 0.784 | relative viability ([4]; first compound 0.04 µM): 1.02 | relative viability ([4]; first compound 0.1265 µM): 0.974 | relative viability ([4]; first compound 0.4 µM): 1.05 | relative viability ([4]; first compound 1.265 µM): 0.459 | relative viability ([4]; first compound 4 µM): 0.812
